The source of these data is article PMC2749524 (Cancer research, 2009).

Data set [1] has as its system U87MG xenografts (tumor glucose metabolism). Briefly: FDG microPET/CT tumor uptake in U87MG xenografts.
For data set [2], the system named is αVβ3 focal adhesions in U87MG cells. Briefly: Immunofluorescence of dimerized αVβ3. Format: cell-based, human. To be noted: 100 nM, 3 h, U87MG on fibronectin.
Data set [3] deals with αVβ3 integrin on U87MG cells. Kind of data set: Flow cytometry of surface αVβ3 integrin expression. Format: cell-based, human. The conditions noted are these: 100 nM, 6 or 24 h, FACS, LM609 antibody, samples in duplicate. On the technique in general: Flow cytometry measures light scatter and fluorescence of single cells or particles in a stream.
Data set [4] relates to Src family kinases / Focal Adhesion Kinase phosphorylation in U87MG cells. Briefly: Western blot of phospho-Src, phospho-FAK and β3 in U87MG cell lysates. Format: cell-based, human. To be noted: 100 nM. (A western blot detects proteins with antibodies after separation by electrophoresis.)
For data set [5], the system named is U87MG xenografts (αVβ3 integrin activity). Briefly: microPET/CT tumor uptake of [^64Cu]DOTA–c. Format: in vivo, SCID mice. To be noted: 72 h; for reduction of [^64Cu]DOTA–c(RGDfK) tumor uptake: vs vehicle controls, PET 15 h post injection.
The test system of data set [6] is U87MG xenografts. Kind of data set: Histology and immunohistochemistry of frozen tumor sections. Format: in vivo, SCID mice. To be noted: 95 mg/kg, 72 h.
Data set [7] concerns U87MG xenografts. Briefly: U87MG xenograft tumor growth. Format: in vivo, SCID mice.

In the case of `OC[C@H]1OC(O)[C@H]([18F])[C@@H](O)[C@@H]1O` (stereo partly shown) [FDG, [^18F]fluorodeoxyglucose], the “tumor FDG uptake in vehicle controls” value in data set [1] (U87MG xenograft, 7–10 MBq FDG, 1 h uptake, mean ± SD) was 10.39±1.04 % ID/g.
Regarding `Cc1nc(Nc2ncc(C(=O)Nc3c(C)cccc3Cl)s2)cc(N2CCN(CCO)CC2)n1` [dasatinib], the “αVβ3 clustering in focal adhesion complexes” value in data set [2] is on record as “no longer clustered in focal adhesion complexes”. For the same compound, the “change in tumor FDG uptake” value in data set [1] (95 mg/kg, 72 h, p=0.1704) is reported as “no significant change”. Also, in data set [3], the “total dimerized cell surface αVβ3 protein level” value is on record as “did not change relative to control”. Also, the “total β3 levels” value in data set [4] (6 or 24 h) was “nor did total β3 levels decrease”. Further, in data set [4] (6 h), the “FAK phosphorylation at tyrosine 397” value is “decrease”, the “FAK phosphorylation at tyrosine 861” value is listed as “target inhibition” and the “SFK phosphorylation at tyrosine 416” value is reported as “target inhibition”. The “reduction of [^64Cu]DOTA–c(RGDfK) tumor uptake” value in data set [5] (72 mg/kg daily gavage) was 39%. Also, in data set [5] (95 mg/kg daily gavage), the “reduction of [^64Cu]DOTA–c(RGDfK) tumor uptake” value stood at 59%. Moreover, the “tracer distribution and organ uptake, treated vs untreated animals” value in data set [5] (95 mg/kg, dynamic PET, normal organs, except U87 xenografts) was “virtually identical”. Also, the “tumor viability and vascularization (H&E, CD31)” value in the data set with U87MG xenografts [6] was “remained viable and vascularized”. Moreover, the “phospho-FAK (Y861) staining in tumors” value with U87MG xenografts [6] (immunohistochemistry, relative to control) is “reduced”. Besides, the “αVβ3 staining in tumors” value in the data set with U87MG xenografts [6] (treated vs control, LM609 antibody) is given as “no difference”. Further, in the data set with U87MG xenografts [7] (after 10 consecutive days of treatment), the “difference in tumor size between control and treated animals” value was “six-fold”. Besides, the “difference in tumor size at the time of PET imaging” value in the data set with U87MG xenografts [7] (day 3, p=0.1272) is recorded as “no appreciable difference”.
